System: keratosis pilaris
Assay: In-vivo study, patients with keratosis pilaris
Conditions: topical use; arms, buttocks, thighs, and cheeks
Text: During use of the skin treatment formulations, the glycolic acid is configured to react with the top layer of skin, i.e., the stratum corneum, by breaking it down while dissolving sebum and other substances that bind dead tissue together. The dead skin cells produced when exposed to the glycolic acid may then be sloughed off with gentle exfoliation, which clears blocked pores and opens comedones to reveal smoother, brighter, younger-looking skin.

Structure (SMILES): O=C(O)CO [glycolic acid]
- skin appearance in keratosis pilaris patients: clearer and smoother skin

Source: patent US20180250314A1, “Skin Treatment System” (priority 2017, published 2018)
